The results in this text go back to PMC3961306, “Comparison of the Cancer Gene Targeting and Biochemical Selectivities of All Targeted Kinase Inhibitors Approved for Clinical Use” (PLoS ONE, 2014).

Common to all, as to assay: Kinase profiling in a biochemical assay panel (mobility shift assays and ELISA), %-inhibition at 1 μM; selectivity entropy
For orientation: An ELISA detects its analyte on a solid surface through an enzyme-linked reagent.

Assay [1] concerns the target panel of more than 300 wild-type and mutant kinases (313 kinase panel) (Homo sapiens, UniProt Q9H0K1). Conditions: kinase QIK; 1 μM.
The target in assay [2] is T1, panel of more than 300 wild-type and mutant kinases (313 kinase panel) (Homo sapiens, UniProt Q12852).
T1 sequence (Q12852 1-859): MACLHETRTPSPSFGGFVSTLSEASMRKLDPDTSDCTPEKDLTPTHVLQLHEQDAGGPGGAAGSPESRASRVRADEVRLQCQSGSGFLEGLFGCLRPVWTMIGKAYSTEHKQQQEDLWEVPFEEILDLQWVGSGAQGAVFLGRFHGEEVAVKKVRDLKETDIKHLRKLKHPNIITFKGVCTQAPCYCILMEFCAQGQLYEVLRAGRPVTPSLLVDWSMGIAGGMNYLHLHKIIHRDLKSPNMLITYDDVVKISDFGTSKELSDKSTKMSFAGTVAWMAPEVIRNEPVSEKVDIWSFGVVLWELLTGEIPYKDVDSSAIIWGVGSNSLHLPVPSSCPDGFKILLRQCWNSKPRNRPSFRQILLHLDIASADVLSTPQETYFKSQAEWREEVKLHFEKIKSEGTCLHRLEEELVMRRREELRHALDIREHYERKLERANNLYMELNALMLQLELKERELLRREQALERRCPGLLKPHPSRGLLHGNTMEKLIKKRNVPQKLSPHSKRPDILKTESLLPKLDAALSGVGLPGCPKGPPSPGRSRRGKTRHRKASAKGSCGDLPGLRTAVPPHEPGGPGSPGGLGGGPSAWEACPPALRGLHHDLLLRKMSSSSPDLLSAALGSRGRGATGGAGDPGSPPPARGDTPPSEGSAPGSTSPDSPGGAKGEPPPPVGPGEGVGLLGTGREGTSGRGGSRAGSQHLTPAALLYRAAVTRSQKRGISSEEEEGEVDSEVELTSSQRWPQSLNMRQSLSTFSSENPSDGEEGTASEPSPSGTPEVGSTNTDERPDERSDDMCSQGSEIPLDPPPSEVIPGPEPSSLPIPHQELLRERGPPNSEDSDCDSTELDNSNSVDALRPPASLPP

Assay [3] addresses T2, panel of more than 300 wild-type and mutant kinases (313 kinase panel) (Homo sapiens, UniProt Q99759).
T2 sequence (Q99759 1-626): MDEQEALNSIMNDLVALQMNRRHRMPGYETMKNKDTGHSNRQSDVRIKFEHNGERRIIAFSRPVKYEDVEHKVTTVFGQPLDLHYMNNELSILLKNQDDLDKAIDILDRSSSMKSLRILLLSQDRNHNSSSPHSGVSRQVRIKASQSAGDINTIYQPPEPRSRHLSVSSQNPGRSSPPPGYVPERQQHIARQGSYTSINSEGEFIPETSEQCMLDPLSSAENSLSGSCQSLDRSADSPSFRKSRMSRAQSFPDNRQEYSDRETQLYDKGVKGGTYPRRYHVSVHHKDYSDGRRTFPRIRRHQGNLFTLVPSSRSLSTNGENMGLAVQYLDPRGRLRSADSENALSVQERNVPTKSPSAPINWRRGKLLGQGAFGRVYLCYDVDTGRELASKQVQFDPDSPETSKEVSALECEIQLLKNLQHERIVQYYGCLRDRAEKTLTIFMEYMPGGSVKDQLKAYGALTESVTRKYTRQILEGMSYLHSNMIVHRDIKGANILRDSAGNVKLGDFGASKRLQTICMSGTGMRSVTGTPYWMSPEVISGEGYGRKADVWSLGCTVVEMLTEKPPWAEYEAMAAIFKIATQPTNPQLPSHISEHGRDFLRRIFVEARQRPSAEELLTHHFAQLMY

Assay [4] deals with panel of more than 300 wild-type and mutant kinases (313 kinase panel) (Homo sapiens, UniProt Q96RG2). Conditions: kinase PASK; 1 μM.
Sequence of panel of more than 300 wild-type and mutant kinases (313 kinase panel) (Homo sapiens, UniProt Q96RG2) (Q96RG2 whole entry, change not shown): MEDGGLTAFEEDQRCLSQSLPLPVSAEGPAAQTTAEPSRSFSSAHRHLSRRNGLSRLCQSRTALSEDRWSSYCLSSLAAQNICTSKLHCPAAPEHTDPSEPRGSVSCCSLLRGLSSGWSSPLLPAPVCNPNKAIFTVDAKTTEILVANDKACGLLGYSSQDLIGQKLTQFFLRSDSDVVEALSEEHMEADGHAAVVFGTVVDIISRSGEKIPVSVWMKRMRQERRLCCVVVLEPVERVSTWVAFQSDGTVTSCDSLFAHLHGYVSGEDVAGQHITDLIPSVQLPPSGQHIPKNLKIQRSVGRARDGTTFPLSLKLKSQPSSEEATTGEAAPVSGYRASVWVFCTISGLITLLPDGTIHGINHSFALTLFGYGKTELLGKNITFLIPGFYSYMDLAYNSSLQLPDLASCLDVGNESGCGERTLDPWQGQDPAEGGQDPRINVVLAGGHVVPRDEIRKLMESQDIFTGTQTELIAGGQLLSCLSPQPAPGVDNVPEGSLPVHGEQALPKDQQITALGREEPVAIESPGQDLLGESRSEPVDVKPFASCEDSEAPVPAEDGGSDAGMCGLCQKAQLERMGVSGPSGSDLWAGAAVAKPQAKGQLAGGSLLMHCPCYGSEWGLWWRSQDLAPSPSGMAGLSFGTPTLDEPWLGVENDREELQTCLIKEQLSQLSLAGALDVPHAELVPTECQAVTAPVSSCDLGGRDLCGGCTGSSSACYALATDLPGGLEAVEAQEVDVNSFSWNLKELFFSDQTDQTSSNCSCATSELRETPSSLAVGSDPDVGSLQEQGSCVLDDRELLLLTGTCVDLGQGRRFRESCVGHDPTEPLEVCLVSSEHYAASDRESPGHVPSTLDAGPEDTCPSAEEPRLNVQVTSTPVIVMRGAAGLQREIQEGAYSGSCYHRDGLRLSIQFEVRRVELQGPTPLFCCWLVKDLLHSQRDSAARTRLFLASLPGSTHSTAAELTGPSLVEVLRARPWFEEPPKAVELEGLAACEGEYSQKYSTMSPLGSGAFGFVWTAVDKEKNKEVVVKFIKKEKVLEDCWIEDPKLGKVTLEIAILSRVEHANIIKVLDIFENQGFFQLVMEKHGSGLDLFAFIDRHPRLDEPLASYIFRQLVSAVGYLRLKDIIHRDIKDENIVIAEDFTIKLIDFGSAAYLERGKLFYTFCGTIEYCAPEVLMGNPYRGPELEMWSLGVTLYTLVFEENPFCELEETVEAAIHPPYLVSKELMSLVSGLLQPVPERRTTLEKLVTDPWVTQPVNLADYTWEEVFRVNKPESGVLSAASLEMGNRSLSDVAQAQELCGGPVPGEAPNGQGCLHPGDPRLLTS
Assay [5] concerns the target T3, panel of more than 300 wild-type and mutant kinases (313 kinase panel) (Homo sapiens, UniProt P41743).
T3 sequence (P41743 1-596): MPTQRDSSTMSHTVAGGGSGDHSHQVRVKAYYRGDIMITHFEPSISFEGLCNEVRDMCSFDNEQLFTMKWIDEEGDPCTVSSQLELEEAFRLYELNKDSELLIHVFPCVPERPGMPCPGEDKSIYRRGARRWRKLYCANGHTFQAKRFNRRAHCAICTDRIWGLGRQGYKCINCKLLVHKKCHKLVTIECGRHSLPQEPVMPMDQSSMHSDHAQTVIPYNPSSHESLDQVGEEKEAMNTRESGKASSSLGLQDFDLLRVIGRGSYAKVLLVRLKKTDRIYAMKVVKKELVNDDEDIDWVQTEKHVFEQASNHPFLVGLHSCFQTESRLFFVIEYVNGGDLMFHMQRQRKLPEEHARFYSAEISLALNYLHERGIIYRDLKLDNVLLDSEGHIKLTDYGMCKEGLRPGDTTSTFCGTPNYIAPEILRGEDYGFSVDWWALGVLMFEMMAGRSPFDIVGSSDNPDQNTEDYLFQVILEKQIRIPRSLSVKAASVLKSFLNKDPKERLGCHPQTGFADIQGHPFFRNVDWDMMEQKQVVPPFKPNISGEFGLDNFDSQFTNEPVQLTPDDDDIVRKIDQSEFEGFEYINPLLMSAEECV
As to conditions: kinase PKCι; 1 μM.

Assay [6] addresses panel of more than 300 wild-type and mutant kinases (313 kinase panel) (Homo sapiens, UniProt Q16620).
Assay [7] deals with panel of more than 300 wild-type and mutant kinases (313 kinase panel) (Homo sapiens, UniProt Q00534). Conditions: kinase CDK6/CycD3; 1 μM compound.
Where [8] appears, read: kinase MAP3K3, compound at 1 μM.

Sequence of panel of more than 300 wild-type and mutant kinases (313 kinase panel) (Homo sapiens, UniProt Q9H0K1) (Q9H0K1 whole entry, change not shown): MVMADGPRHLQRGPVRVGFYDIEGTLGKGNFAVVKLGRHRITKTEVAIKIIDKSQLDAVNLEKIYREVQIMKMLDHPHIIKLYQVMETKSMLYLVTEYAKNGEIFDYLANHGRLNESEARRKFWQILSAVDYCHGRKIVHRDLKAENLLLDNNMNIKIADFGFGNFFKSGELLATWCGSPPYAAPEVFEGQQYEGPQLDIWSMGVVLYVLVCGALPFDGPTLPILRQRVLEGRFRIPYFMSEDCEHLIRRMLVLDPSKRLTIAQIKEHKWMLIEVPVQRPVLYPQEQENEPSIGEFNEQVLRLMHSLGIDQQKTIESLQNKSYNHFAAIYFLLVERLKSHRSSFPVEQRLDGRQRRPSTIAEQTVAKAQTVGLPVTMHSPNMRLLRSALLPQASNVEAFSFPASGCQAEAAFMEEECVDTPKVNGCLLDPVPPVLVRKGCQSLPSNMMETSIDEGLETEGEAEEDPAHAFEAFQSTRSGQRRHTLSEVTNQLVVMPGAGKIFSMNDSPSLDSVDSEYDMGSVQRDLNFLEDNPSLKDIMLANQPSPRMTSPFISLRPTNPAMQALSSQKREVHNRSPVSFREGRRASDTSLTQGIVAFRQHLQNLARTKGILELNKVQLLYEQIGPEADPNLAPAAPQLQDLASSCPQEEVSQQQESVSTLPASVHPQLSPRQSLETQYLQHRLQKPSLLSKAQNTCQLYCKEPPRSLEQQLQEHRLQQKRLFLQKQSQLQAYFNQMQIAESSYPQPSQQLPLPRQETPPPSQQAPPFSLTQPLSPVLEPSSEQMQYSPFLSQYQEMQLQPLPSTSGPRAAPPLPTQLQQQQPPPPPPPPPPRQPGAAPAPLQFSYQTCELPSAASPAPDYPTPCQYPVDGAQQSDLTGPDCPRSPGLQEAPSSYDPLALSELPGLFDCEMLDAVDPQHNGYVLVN

For the molecule `Cc1ccc(C(=O)Nc2ccc(CN3CCN(C)CC3)c(C(F)(F)F)c2)cc1C#Cc1cnc2cccnn12` [ponatinib], in assay [1], the “%-inhibition of QIK” value turned out to be 51%. Also, the “%-inhibition of DLK” value in assay [2] (kinase DLK, compound at 1 μM) worked out at 84%. In assay [3] (setting [8]), the “%-inhibition of MAP3K3” value was 88%. The “%-inhibition of PASK” value in assay [4] was 25%. Besides, the “%-inhibition of PKCι” value in assay [5] turned out to be 18%. In addition, the “%-inhibition of TRKB” value in assay [6] (kinase TRKB, 1 μM) came out at 100%. Also, in assay [7], the “%-inhibition, CDK6/CycD3” value was 25%.

Consider `CO[C@H]1C[C@@H]2CC[C@@H](C)[C@@](O)(O2)C(=O)C(=O)N2CCCC[C@H]2C(=O)O[C@H]([C@H](C)C[C@@H]2CC[C@@H](OC(=O)C(C)(CO)CO)[C@H](OC)C2)CC(=O)[C@H](C)/C=C(\C)[C@@H](O)[C@@H](OC)C(=O)[C@H](C)C[C@H](C)/C=C/C=C/C=C/1C` [temsirolimus], for which the “%-inhibition of QIK” value in assay [1] is -3%. Further, in assay [2] (kinase DLK, compound at 1 μM), the “%-inhibition of DLK” value is listed as -6%. Also, the “%-inhibition of MAP3K3” value in assay [3] (setting [8]) turned out to be 10%. Also, the “%-inhibition of PASK” value in assay [4] is listed as -8%. In addition, the “%-inhibition of PKCι” value in assay [5] was found to be 13%. The “%-inhibition of TRKB” value in assay [6] (kinase TRKB, 1 μM) was found to be 1.08%. In addition, in assay [7], the “%-inhibition, CDK6/CycD3” value is -3.18%.

Turning to `Cc1cn(-c2cc(NC(=O)c3ccc(C)c(Nc4nccc(-c5cccnc5)n4)c3)cc(C(F)(F)F)c2)cn1` [nilotinib], in assay [1], the “%-inhibition of QIK” value is -36%. The “%-inhibition of DLK” value in assay [2] (1 µM) worked out at 1.43%. Further, the “%-inhibition of MAP3K3” value in assay [3] (1 µM) is given as -21%. Besides, the “%-inhibition of PASK” value in assay [4] is given as -3%. In addition, the “%-inhibition of PKCι” value in assay [5] is -8%. In addition, the “%-inhibition of TRKB” value in assay [6] (1 µM) is 56%. In addition, in assay [7], the “%-inhibition, CDK6/CycD3” value was -23%.

Regarding `COc1cc(Nc2c(C#N)cnc3cc(OCCCN4CCN(C)CC4)c(OC)cc23)c(Cl)cc1Cl` [bosutinib], the “%-inhibition of QIK” value in assay [1] is reported as 100%. Further, the “%-inhibition of DLK” value in assay [2] (kinase DLK, compound at 1 μM) came out at 77%. In addition, the “%-inhibition of MAP3K3” value in assay [3] (setting [8]) is on record as 91%. Besides, in assay [4], the “%-inhibition of PASK” value is recorded as -0.0941%. In addition, the “%-inhibition of PKCι” value in assay [5] is on record as 5%. The “%-inhibition of TRKB” value in assay [6] (kinase TRKB, 1 μM) is 62%. Also, the “%-inhibition, CDK6/CycD3” value in assay [7] is 0.0624%.

Consider `CS(=O)(=O)CCNCc1ccc(-c2ccc3ncnc(Nc4ccc(OCc5cccc(F)c5)c(Cl)c4)c3c2)o1` [lapatinib], for which the “%-inhibition of QIK” value in assay [1] is given as -4.72%. Moreover, the “%-inhibition of DLK” value in assay [2] (kinase DLK, compound at 1 μM) is given as -3.44%. Also, the “%-inhibition of MAP3K3” value in assay [3] (1 µM) is on record as 4.75%. Moreover, the “%-inhibition of PASK” value in assay [4] was -5%. The “%-inhibition of PKCι” value in assay [5] was -0.659%. Moreover, the “%-inhibition of TRKB” value in assay [6] (kinase TRKB, 1 μM) is -10%. The “%-inhibition, CDK6/CycD3” value in assay [7] is recorded as 5%.
